Results reported in patent US20040191842A1, “Chemopreventive and therapeutic aspects of polyphenolic compositions and assays” (Medical College of Georgia Research Institute, Inc., priority 2002, published 2004).

Columns and labels:
caspase 14 = assay: Apoptosis macroarray, caspase 14 mRNA in NHEK; format: cell-based, human
Method: To identify additional factors those suppress EGCG -induced apoptosis and facilitate cell differentiation in NHEK, exponentially growing NHEK (Cambrex, Baltimore, Md.) were exposed to 100 μM EGCG for 0, 2, 6 and 24 hours, prior to total RNA isolation using the Qiagen RNeasy mini kit (Valencia, Calif.), which was followed by RT-PCR labeling and hybridization with the Human Apoptosis Macroarray membrane (Sigma-Genosys, The Woodlands, Tex.). Total cell lysates also were collected following a variety of EGCG treatments. The protein levels for caspase 14 and p21 were determined by immuno-blotting using antibodies specific for caspase 14 and p21 (Santa Cruz Biotechnology, Santa Cruz, Calif.).
Normal human epidermal keratinocytes (NHEK; Cambrex), and oral squamous cell carcinoma (OSC2) cells, originally from gingival tissue, were compared. Exponentially growing cells were exposed to 50 or 100 μM EGCG for 0 hours, 2 hours, 6 hours or 24 hours. Cells were harvested for total RNA, which was examined by apoptosis macroarrays (Sigma Genosys), followed by phosphorimagery and data analysis (GeneSpring). Protein production of expressed genes was confirmed by Western blotting of whole cell lysates.

Apaf-1 = assay: Western blot of Apaf-1 in mammary epithelial cells; format: cell-based, human; conditions: 15 μM EGCG, 24 h
Method: Western blot analysis. The keratinocytes and the mammary epithelial cells were placed in KGM-2 and MEGM, respectively, overnight prior to treatment. Cells were lysed, after 24-hour treatment, in RIPA buffer (1% NP-40, 1% sodium deoxycholate, 0.1% SDS, 0.15 M NaCl, 0.01 M sodium phosphate, pH 7.2, and 1% Trasylol) containing proteinase inhibitors (1 mM PMSF, 1 μg/ml each of aprotinin, leupeptin, and pepstatin). The concentration of protein in each sample was determined using the BioRad DC Protein Assay and spectrophotometry. 50 μg of protein from each sample and a BioRad molecular weight standard marker were run on a 10% SDS-PAGE, followed by transfer to nitrocellulose membranes. Nonspecific binding to the membranes was blocked with 10% nonfat milk. Primary polyclonal (rabbit) antibodies and a horseradish peroxidase-conjugated goat anti-rabbit secondary antibody were used in conjunction with the ECL Chemiluminescence Kit (Amersham Pharmacia Biotech, New Jersey) and membranes were exposed to radiographic films for detection. Western blots were digitized for comparison of the intensity for each band using the ImageTool image analysis software program (University of Texas Health Science Center, San Antonio, Tex.). The integrated density of each band was measured using identical 1480 pixel areas of each Apfa-1 or Actin band at a scale of densities from 0 to 255. […]

MCF7 cells = assay: MTT assay (mitochondrial SDH activity), MCF7 cells; format: cell-based, human; conditions: 50 μM EGCG
Method: MTT (3-(4,5-dimethylthiazol-2-yl)-2,5-diphenyl tetrazolium bromide) assay. This method detects the activity of mitochondrial succinate dehydrogenase (SDH). In a 96-well plate, 1.5×10^4 cells were seeded in each well. After variety of treatments, 100 μl of 2% MTT was added to each well and the plate was incubated at 37° C. for 30 minutes. 100 μl of 0.2 M Tris (pH 7.7) with 4% formalin was added to each well. After incubation at room temperature for 5 minutes, liquid was removed and the wells were allowed to dry. Each well was rinsed with 200 μl water followed by addition of 100 μl DMSO (6.35% 0.1 N NaOH in DMSO) to each well. The coloration was measured by a Thermo MAX microplate reader (Molecular Devices Corp. Sunnyvale, Calif. using wavelengths of 562 nm. Experiments were repeated three times with triplicate samples for each experiment.

[1] = test system: aged normal human primary epidermal keratinocytes; assay: BrdU incorporation assay, aged keratinocytes; format: cell-based; conditions: EGCG 15-50 μM, 15-day and 20-day keratinocytes
Method: Culturing normal human epithelial cells. The pooled normal human primary epidermal keratinocytes were purchased from Cambrex (Baltimore, Md.) and sub-cultured in the specific growth media provided by the manufacturer (KGM-2). […] Exponentially growing keratinocytes were treated and harvested in their early passages (2-3 passages). […] Analysis of DNA synthesis using the BrdU incorporation method. The BrdU cell proliferation kit was purchased from Oncogene Research Products (Boston, Mass.). […] Experiments were repeated three times in triplicate for each experiment.

caspase 3 = assay: Caspase 3 activity assay, MCF7(C) caspase 3+ cells; format: cell-based, human; conditions: increasing EGCG or 0.2 mg/ml GTPPs, 24 h
Method: Caspase 3 activity assay. The Caspase 3 Apoptosis Detection Kit was purchased from Santa Cruz Biotech. Inc. In a 24 well tissue culture plate, 10^5 cells/well of cells in triplicates were plated. […] To each well, 100 μl of 2×reaction buffer was added with […]. Finally, 5 μl of DEVD-AFC substrate was added to each well containing cell lysates. The reaction mixtures were incubated for 1 hour at 37° C. The caspase 3 activity in each well was measured using a fluorescence microplate reader set for 405 nm excitation and 505 nm emission.

## O=C(O[C@@H]1Cc2c(O)cc(O)cc2O[C@@H]1c1cc(O)c(O)c(O)c1)c1cc(O)c(O)c(O)c1 [EGCG, (−)-epigallocatechin-3-gallate]
Caspase 14; 100 μM EGCG (Example 10)
  caspase 14 gene expression upregulated: at least 2 fold
Caspase 14; 100 μM EGCG, 24 hours
  caspase 14 mRNA expression above control: approximately three
Apaf-1
  Apaf-1 protein level increase above control (densitometry): 47%
MCF7 cells
  mitochondrial SDH activities: significantly decreased
[1]
  BrdU incorporation: slight negative impact on BrdU incorporation
Caspase 3
  caspase 3 activation: demonstrated activated caspase 3
